Earlier results on two compounds are cited in US6365131B1, “Pharmaceutical dental formulation for topical application of metronidazole benzoate, chlorhexidine gluconate and local anesthetic” (priority 1997, dated 2002).

Turning to `CCOC(=O)c1ccc(N)cc1` [Benzocaine, ethyl ester of p-Aminobenzoic acid], under “after the application to skin or mucosal surface”, the “Time to peak effect” value is ≤ 1 min.
For `CCN(CC)CC(=O)Nc1c(C)cccc1C` [Lidocaine], the Onset of anesthesia entry (depending on the site of administration) is reported as “within a few minutes”. Further, the Duration of action entry (in words) is “intermediate duration of action”.
